In series [1] the test system is UGT (furosemide glucuronidation). Kind of series: Inhibition of furosemide glucuronidation in liver microsomes from hUGT1 mice. Particulars: male, Tg(UGT1A1*28)Ugt1−/− (hUGT1), C57BL/6 background, mouse (humanized UGT1), pH 7.4, probe furosemide; humanized UGT1 mice liver microsomes. It is filed as in vitro ADME, humanized UGT1 mice. The source says:
(§1) IC50 values were directly determined from linear regression.
(In general: Liver microsomes are a subcellular fraction often used to study metabolism.)

The subject of series [2] is furosemide glucuronidation in liver microsomes from hUGT1 mice. The series is described as above. Type of series: in vitro ADME, humanized UGT1 mice. The conditions noted are these: hUGT1 mice liver microsomes, 500 μmol/L AZT.
Description: as §1

The subject of series [3] is UGT (furosemide glucuronidation). The series is described as follows: Inhibition of furosemide glucuronidation in human liver microsomes. Type of series: in vitro ADME. Particulars: pH 7.4, probe furosemide.
Description: as §1

Series [4] relates to furosemide glucuronidation in human liver microsomes. The series is described as above. Type of series: in vitro ADME. Particulars: 500 μmol/L AZT.
Description: as §1

Series [5] concerns UGT (furosemide glucuronidation). The series is described as follows: Inhibition of furosemide glucuronidation in regular mouse liver microsomes. It is filed as in vitro ADME. Particulars: CD-1, mouse, pH 7.4, probe furosemide; regular mice liver microsomes.
Description: as §1

The subject of series [6] is furosemide glucuronidation in mouse liver microsomes. The series is described as above. Particulars: regular mice liver microsomes, 500 μmol/L AZT. It is filed as in vitro ADME.
Description: as §1

The subject of series [7] is UGT activities in human liver microsomes. Also on record: method as in Court and Greenblatt [1997]. The conditions noted are these: ref Court and Greenblatt [1997]; cited from earlier work.
Series [8] has as its system UGT activities in mouse liver microsomes. Also on record: method as in Court and Greenblatt [1997]. The conditions noted are these: ref Court and Greenblatt [1997]; cited from earlier work.
In series [9] the test system is liver microsomes from hUGT1 mice.
For series [10], the system named is human liver microsomes.
In series [11] the test system is mouse liver microsomes.
The subject of series [12] is furosemide glucuronidation in liver microsomes from hUGT1 mice. The conditions noted are these: 0–0.5% BSA.
In series [13] the test system is furosemide glucuronidation in human liver microsomes. Particulars: 0–0.5% BSA.
The subject of series [14] is furosemide glucuronidation in liver microsomes from control mice. The conditions noted are these: 0–0.5% BSA.

Results on 6 compounds are retold here after article PMC4184567, “Glucuronidation of drugs in humanized UDP-glucuronosyltransferase 1 mice: Similarity with glucuronidation in human liver microsomes” (Pharmacology Research & Perspectives, 2013).

A word on the IC50: it is the concentration at which inhibition is half-maximal. A low value points to inhibition by little substance.

Consider `Cc1cn([C@H]2C[C@H](N=[N+]=[N-])[C@@H](CO)O2)c(=O)[nH]c1=O` [AZT, 3′-azido-3′-deoxythymidine], for which the IC50 at 30 min in [1], in [3] and in series [5] was above 500 µM each time. For the same compound, the “Inhibition of furosemide glucuronidation (in words)” value in [2], in [4] and in series [6] was “did not inhibit” in each case.

`C[C@H](CCC(=O)NCCC[N+](C)(C)CCCS(=O)(=O)[O-])[C@H]1CC[C@H]2[C@@H]3[C@H](O)C[C@@H]4C[C@H](O)CC[C@]4(C)[C@H]3C[C@H](O)[C@]12C` [CHAPS]: the “Increase of UGT activities by detergent” value in series [7] is given as 9–66%. Further, the “Increase of UGT activity by detergent” value in series [8] is reported as 439–563%.

Take `C[C@]12CC[C@@H]3c4ccc(O)cc4CC[C@H]3[C@@H]1CC[C@@H]2O` [estradiol]: the IC50 at 30 min in series [1] came to 32.5 µM; in series [3], 31.7 µM; in series [5] it was 111 µM.

Consider `NCCc1c[nH]c2ccc(O)cc12` [serotonin], for which the IC50 at 30 min was 610 µM in series [1], above 5000 µM in series [3] and 450 µM in series [5].

Consider `CN1CCN(CCCN2c3ccccc3Sc3ccc(C(F)(F)F)cc32)CC1` [trifluoperazine], for which the N-glucuronide formation entry was “lesser but detectable amount” in series [9], “observed” in [10] and “not detected” in [11].

For the compound bovine serum albumin [BSA], the “Effect of BSA on furosemide glucuronidation” value in series [12] is recorded as “similarly observed”; in series [13], “concentration-dependently activated”; in series [14], “similarly observed”.
